Measured values published in patent US20160000837A1, “COMPOSITIONS AND METHODS TO ALTER GUT MICROBIAL FERMENTATION USING SULFATE-REDUCING BACTERIA” (WASHINGTON UNIVERSITY, priority 2013, published 2016).

Legend:
D. piger [1] = experiment: In vitro cross feeding between B. thetaiotaomicron and D. piger (growth in conditioned medium, OD600); type: cell-based, D. piger GOR1; conditions: for D. piger growth in medium conditioned by wild-type B. thetaiotaomicron grown on the named carbon substrate: 0.5% carbon substrate in minimal medium, filter-sterilized, lactate 30 mM added, no added sulfate
Procedure: A B. thetaiotaomicron strain Δbt0238 that lacks detectable sulfatase activity, and the isogenic wild-type strain were grown in separate cultures containing minimal medium with either a sulfated or non-sulfated carbon substrate (chondroitin sulfate and fructose, respectively).
Exponential phase cultures of B. thetaiotaomicron Δbt0238 and the isogenic wild-type parental strain (Benjdia et al., 2011; kindly provided by Eric Martens, University of Michigan and Olivier Berteau, INRA), grown in Mega Medium 2.0, were inoculated under anaerobic conditions (atmosphere of 5% H2, 20% CO2 and 75% N2) into Balch tubes containing minimal medium supplemented with either 0.5% (w/v) chondroitin sulfate purified from shark cartilage (Sigma) or 0.5% fructose (Sigma) (n=6 tubes/carbon substrate/strain). […] Cultures representing the same strain and carbon substrate were combined and bacteria were pelleted by centrifugation at 3,200×g at 4° C. for ˜20 min. The supernatant was removed and sterilized by passage through a 0.22 μm filter (Fisher). […] The pH of the conditioned medium was adjusted to ˜7.0 using potassium phosphate buffer (pH 7.2). One half of each conditioned medium preparation was used to fill anaerobic Balch tubes (in triplicate) while sulfate (14 mM Na2SO4 and 4.1 mM MgSO4) was added to the remaining conditioned medium prior to filling the tubes (in triplicate).

D. piger [2] = experiment: COPRO-Seq relative abundance of D. piger in fecal microbiota of gnotobiotic mice fed sulfur-supplemented HF/HS diets; type: in vivo
Text: Six groups, each composed of two co-housed mice colonized with the 9-member model human gut microbiota were fed one of 13 diets, all based on the HF/HS diet (0.12% w/w SO4; see Table S2 of Rey et al. PNAS 110: 13582-13587 for diet composition). Each group of mice were started on the HF/HS diet and then given a sequence of four diets with differing sulfur content, each for a 7-day period. The sequence of presentation of the four diets was randomized so that that each diet was eventually fed to two different groups of co-housed animals.
DNA isolated from feces (and cecal contents) was used to prepare libraries for shotgun Illumina sequencing (McNulty et al., 2011). Briefly, 1 μg of DNA from each sample was fragmented by sonication to an average size of ˜500 bp and subjected to enzymatic blunting and adenine tailing. Customized Illumina adapters containing maximally distant 4 bp or 8 bp barcodes were ligated to the A-tailed DNA. Barcoded libraries were then pooled, subjected to gel electrophoresis for size selection (˜200 bp) and the size-selected DNA amplified by PCR using primers and cycling conditions recommended by Illumina. Amplicons were purified (QIAquick PCR Purification Kit, Qiagen) and sequenced using an Illumina GA-IIx or HiSeq2000 instrument, with libraries loaded onto the flow cell at a concentration of 2.0-2.5 pM. […]

In the case of `O=C(CO)[C@@H](O)[C@H](O)[C@H](O)CO` [fructose], the “D. piger growth in medium conditioned by wild-type B. thetaiotaomicron grown on the named carbon substrate” value (D. piger [1]) is reported as “lack of growth”.
In the case of `CC(O)C(=O)O` (stereo not shown) [lactate], the “growth of D. piger with lactate as sole carbon and electron source” value (D. piger [1]; in the absence of sulfate, data not shown) is reported as “does not support growth”.
For `O=S(=O)(O)O` [sulfate], the “D. piger growth in fructose-conditioned medium after addition of exogenous sulfate” value (D. piger [1]; 14 mM Na2SO4 and 4.1 mM MgSO4 added) was “allowed growth” and the “relative abundance of D. piger in the 9-member model human microbiota” value (D. piger [2]; 600-fold change in dietary sulfate (0.001% to 0.6% w/w) in HF/HS-based diets, 7 days each) was “did not affect”.
chondroitin sulfate was tested, and the “D. piger growth in medium conditioned by wild-type B. thetaiotaomicron grown on the named carbon substrate” value (D. piger [1]) was “Growth of D. piger was only observed”, the “ability of D. piger to metabolize the substrate (growth in medium harvested from B. thetaiotaomicron Δbt0238 cultures)” value (D. piger [1]; chondroitin sulfate-containing minimal medium, lactate added) was “not able to metabolize” and the “D. piger levels in fecal microbiota relative to the HF/HS diet” value (D. piger [2]; HF/HS diet supplemented with 3% chondroitin sulfate, 7 days, 9-member community, p<0.05) was “doubled”.
